Data from patent US20230271969A1, “NITROGEN-CONTAINING FUSED RING DERIVATIVE INHIBITOR, PREPARATION METHOD THEREFOR AND USE THEREOF” (Shanghai Hansoh Biomedical Co., Ltd., priority 2020, published 2023).

Assays:
[1] = system: luteinizing hormone (LH) content in plasma; experiment: Luteinizing hormone (LH) content in plasma of bilateral ovariectomy (OVX) rats; assay type: in vivo; conditions: oral 30 mg/kg, plasma LH 0-8 h
Excerpt: Test Example 5. Effect of the Compounds of the Present Invention on Luteindzing Hormone (LH) Content in Plasma of Bilateral Ovariectomy (OVX) Rats
The objective of this test example was to determine the effect of the compounds on luteinizing hormone (LH) in plasma of bilateral ovarnectomy (OVX) rats.
10-Week-old female bilateral ovariectomy SD rats were purchased from Beijing Vital River Laboratory Animal Technology Co., Ltd. The animals were housed in a SPF grade animal facility with 5 SD rats per cage. The cages, bedding, feed and water were disinfected at high temperatures before use. All animals had free access to food and water.
Drug administration by groups: 10-Week-old female SD rats were subjected to bilateral ovariectomy and used in experiments after 3 weeks. Each SD rat was fasted overnight before the experiment, and then randomly divided into groups (3 rats per group) before the drug administration. Different test compounds were administered orally to each drug administration group at a dose of 30 mg/kg and a volume of 10 mL/kg.
Sample collection: 0.2-0.3 mL of whole blood of the SD rats in each group was collected at 0, 0.5, 1, 2, 4, 8 hours before and after the drug administration, and placed in EDTA-K2 tubes. The tubes were inverted and mixed well, and centrifuged at 4° C. at 5,000 rpm for 5 min. Then the plasma was separated and stored in an ultra-low temperature freezer (−80±10° C.).
Sample detection: All reagents, samples and ELISA plates were equilibrated at room temperature (20-25° C.) for at least 30 min. The sample was thawed, vortexed and centrifuged for use. The standard curve was prepared with Assay buffer C according to the concentration sequence of 10, 5, 2.5, 1.25, 0.625, 0.313 and 0. The sample was diluted by two folds with Sample dilution buffer G and left to stand at room temperature for 10 min. […] The OD values of each well was read at a wavelength of 450 nm with a microplate reader.
The standard curve was plotted by using Graphpad, and the concentration of the sample was calculated. […]

[2] = target: T1, NK3 receptors (Homo sapiens, UniProt P29371); experiment: Calcium ion fluidity (FLIPR) in cells with stable expression of NK3 receptors; assay type: cell-based; conditions: calcium signal, antagonist mode, read-out: NK3R IC50 (nM) FLIPR
T1 construct: expressed in transfected cells
T1 sequence (P29371 1-465): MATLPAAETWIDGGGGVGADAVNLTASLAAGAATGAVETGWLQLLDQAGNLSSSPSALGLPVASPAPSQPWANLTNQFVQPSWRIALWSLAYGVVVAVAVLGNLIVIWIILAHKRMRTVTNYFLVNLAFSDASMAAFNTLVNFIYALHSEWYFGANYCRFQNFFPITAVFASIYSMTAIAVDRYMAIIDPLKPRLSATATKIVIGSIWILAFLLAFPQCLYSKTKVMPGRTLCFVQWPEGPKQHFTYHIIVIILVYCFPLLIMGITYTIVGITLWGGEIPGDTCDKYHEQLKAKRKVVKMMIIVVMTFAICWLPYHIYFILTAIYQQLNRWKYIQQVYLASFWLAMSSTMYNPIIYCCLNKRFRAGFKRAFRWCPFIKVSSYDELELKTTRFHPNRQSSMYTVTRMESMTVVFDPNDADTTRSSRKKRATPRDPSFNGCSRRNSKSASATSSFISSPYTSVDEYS

[3] = target: T1, NK3 receptors; experiment: Antagonism of IP1 in HEK293 cells with stable expression of NK3; assay type: cell-based; conditions: agonist Senktide 3 nM, read-out: NK3R IC50 (nM) IP1

Structure (SMILES)	ΣAUC(ΔLH/LH · h, Mean ± SD) [1]	IC50 [2]	IC50 [3]
[2H]c1cc(C(=O)N2CCn3c(-c4nc(Cl)ns4)nnc3[C@H]2C)ccc1Cl [Example 73, (R)-(3-(3-Chloro-1,2,4-thiadiazol-5-yl)-8-methyl-5,6-dihydro-[1,2,4]triazolo[4,3-a]pyrazin-7(8H)-yl)(4-chlorophenyl-3-d)methanone]	−2.04 ± 1.36 ΔLH/LH · h	267 nM	
[2H]c1cc(C(=O)N2CCn3c(-c4nc5cc(F)c(F)cc5s4)nnc3[C@H]2C)ccc1F [Example 62]	−1.77 ± 0.42 ΔLH/LH · h	73.6 nM	92.3 nM
